We go through 27 compounds from patent US10758534B2 (Vertex Pharmaceuticals Incorporated, priority 2014, dated 2020).

The structures appear in SMILES notation.

The target in this assay is T1, F508del (Homo sapiens, UniProt P13569, DEL508-508).
T1 construct: expressed in transfected cells
Description: Protocol 1: membrane potential optical assay (FLIPR III, voltage sensing dye), identification of potentiator compounds. In kind it is cell-based. To be noted: Table 3, compounds of Table 1. In short, it runs like this:
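Membrane potential in forskolin-activated, temperature-rescued F508del NIH 3T3 cells is followed with a voltage-sensing dye on FLIPR III. A chloride ion gradient created at the single addition step provides the driving force, after prior compound treatment.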

T1 sequence (P13569 with tags, fused parts or gaps DEL508-508): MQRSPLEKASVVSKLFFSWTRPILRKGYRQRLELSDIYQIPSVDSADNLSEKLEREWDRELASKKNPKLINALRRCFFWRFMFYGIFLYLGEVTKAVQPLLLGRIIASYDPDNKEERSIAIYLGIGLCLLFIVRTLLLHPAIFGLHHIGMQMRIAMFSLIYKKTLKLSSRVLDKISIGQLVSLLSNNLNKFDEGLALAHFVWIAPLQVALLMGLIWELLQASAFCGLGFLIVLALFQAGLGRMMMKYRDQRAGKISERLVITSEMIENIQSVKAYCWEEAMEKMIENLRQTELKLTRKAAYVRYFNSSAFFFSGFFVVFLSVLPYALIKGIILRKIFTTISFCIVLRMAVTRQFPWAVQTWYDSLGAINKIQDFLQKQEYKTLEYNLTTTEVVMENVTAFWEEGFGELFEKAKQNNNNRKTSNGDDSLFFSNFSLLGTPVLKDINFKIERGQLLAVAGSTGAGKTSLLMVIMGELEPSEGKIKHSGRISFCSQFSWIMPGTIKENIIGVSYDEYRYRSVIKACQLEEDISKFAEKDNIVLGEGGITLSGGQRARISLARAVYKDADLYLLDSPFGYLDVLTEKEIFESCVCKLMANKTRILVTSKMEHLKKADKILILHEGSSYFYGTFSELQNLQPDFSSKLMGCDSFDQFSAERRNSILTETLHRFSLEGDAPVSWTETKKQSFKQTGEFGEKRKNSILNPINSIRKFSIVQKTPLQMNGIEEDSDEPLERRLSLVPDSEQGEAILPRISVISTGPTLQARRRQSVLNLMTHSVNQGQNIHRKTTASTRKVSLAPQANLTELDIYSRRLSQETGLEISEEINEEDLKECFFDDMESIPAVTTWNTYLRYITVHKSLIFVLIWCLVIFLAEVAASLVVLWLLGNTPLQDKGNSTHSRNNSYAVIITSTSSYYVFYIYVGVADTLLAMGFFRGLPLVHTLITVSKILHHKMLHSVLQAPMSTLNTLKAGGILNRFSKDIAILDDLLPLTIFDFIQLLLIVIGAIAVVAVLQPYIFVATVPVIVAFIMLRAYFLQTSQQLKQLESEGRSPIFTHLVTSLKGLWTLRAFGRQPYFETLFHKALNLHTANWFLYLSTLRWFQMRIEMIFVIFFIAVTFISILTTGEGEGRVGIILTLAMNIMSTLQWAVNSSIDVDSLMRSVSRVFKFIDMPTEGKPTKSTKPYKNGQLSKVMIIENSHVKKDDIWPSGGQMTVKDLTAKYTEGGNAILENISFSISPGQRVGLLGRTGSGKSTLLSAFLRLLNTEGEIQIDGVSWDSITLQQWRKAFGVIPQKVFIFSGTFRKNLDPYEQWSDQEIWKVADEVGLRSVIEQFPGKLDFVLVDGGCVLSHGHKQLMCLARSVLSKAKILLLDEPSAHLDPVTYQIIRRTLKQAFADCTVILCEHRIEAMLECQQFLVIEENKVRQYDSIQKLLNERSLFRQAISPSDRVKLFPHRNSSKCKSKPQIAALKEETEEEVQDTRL

For the compound `Cc1cc(-c2ccc(C(=O)NS(=O)(=O)c3cccc(N)n3)c(N3C[C@@H](C)CC3(C)C)n2)cnc1OCC(C)C` [Compound 1741, N-[(6-amino-2-pyridyl)sulfonyl]-6-(6-isobutoxy-5-methyl-3-pyridyl)-2-[(4S)-2,2,4-trimethylpyrrolidin-1-yl]pyridine-3-carboxamide], the EC30 result is reported as “+++ (“+++” means <3 uM)”. The result for `CC(C)=C(C)c1ccc(C(=O)NS(=O)(=O)c2cccc(N)n2)c(N2C[C@@H](C)CC2(C)C)n1` [Compound 1510, N-[(6-amino-2-pyridyl)sulfonyl]-6-(1,2-dimethylprop-1-enyl)-2-[(4S)-2,2,4-trimethylpyrrolidin-1-yl]pyridine-3-carboxamide] reads “+++ (“+++” means <3 uM)”; that for `COc1ncc(-c2ccc(C(=O)NS(=O)(=O)c3cccc(N)n3)c(N3CCC(C)CC3)n2)cc1C` [Compound 863, N-[(6-amino-2-pyridyl)sulfonyl]-6-(6-methoxy-5-methyl-3-pyridyl)-2-(4-methyl-1-piperidyl)pyridine-3-carboxamide], “++ (“++” means between 3 uM and 10 uM)”.

`CC1CN(c2ncccc2C(=O)NS(=O)(=O)c2cccc(OCC3CCC=CO3)n2)C(C)(C)C1` (stereo not drawn) [Compound 1874, N—[[6-(3,4-dihydro-2H-pyran-2-ylmethoxy)-2-pyridyl]sulfonyl]-2-(2,2,4-trimethylpyrrolidin-1-yl)pyridine-3-carboxamide]: the EC30 result is “+++ (“+++” means <3 uM)”. The result for `CC(C)Oc1ccc(-c2ccc(C(=O)NS(=O)(=O)c3cccc(N)n3)c(N3CCCC(c4cccc(Cl)c4)C3)n2)cn1` (stereo not drawn) [Compound 1339, N-[(6-amino-2-pyridyl)sulfonyl]-2-[3-(3-chlorophenyl)-1-piperidyl]-6-(6-isopropoxy-3-pyridyl)pyridine-3-carboxamide] reads “+++ (“+++” means <3 uM)”.

As to `Cc1cc(C)c(Oc2nc(-c3cnc(NC4CC4)nc3)ccc2C(=O)NS(=O)(=O)c2cccc(N)n2)c(C)c1` [Compound 1126, N-[(6-amino-2-pyridyl)sulfonyl]-6-[2-(cyclopropylamino)pyrimidin-5-yl]-2-(2,4,6-trimethylphenoxy)pyridine-3-carboxamide], the EC30 result is “+ (“+” means greater than 10 uM)”. To `C#CCOc1cccc(S(=O)(=O)NC(=O)c2cccnc2N2CC(C)CC2(C)C)n1` (stereo not drawn) [Compound 1753, N-[(6-prop-2-ynoxy-2-pyridyl)sulfonyl]-2-(2,2,4-trimethylpyrrolidin-1-yl)pyridine-3-carboxamide] belongs “++ (“++” means between 3 uM and 10 uM)”; to `CC(C)COc1cc(F)cc(-c2ccc(C(=O)NS(=O)(=O)c3cccc(N)n3)c(N3CCC(C)CC3)n2)c1` [Compound 991, N-[(6-amino-2-pyridyl)sulfonyl]-6-(3-fluoro-5-isobutoxy-phenyl)-2-(4-methyl-1-piperidyl)pyridine-3-carboxamide], “+++ (“+++” means <3 uM)”; to `Cc1cc(C)c(Oc2nc(-c3cccc(F)c3O)ccc2C(=O)NS(=O)(=O)c2cccc(N)n2)c(C)c1` [Compound 866, N-[(6-amino-2-pyridyl)sulfonyl]-6-(3-fluoro-2-hydroxy-phenyl)-2-(2,4,6-trimethylphenoxy)pyridine-3-carboxamide], “+++ (“+++” means <3 uM)”. To `CC(C)COc1cc(F)cc(-c2ccc(C(=O)NS(=O)(=O)c3ccn[nH]3)c(N3CCC(C)(C)CC3)n2)c1` [Compound 1110, 2-(4,4-dimethyl-1-piperidyl)-6-(3-fluoro-5-isobutoxy-phenyl)-N-(1H-pyrazol-5-ylsulfonyl)pyridine-3-carboxamide] belongs “+++ (“+++” means <3 uM)”; to `COc1cc(-c2ccc(C(=O)NS(=O)(=O)c3cccc(N)n3)c(Oc3c(C)cc(C)cc3C)n2)ccc1C#N` [Compound 923, N-[(6-amino-2-pyridyl)sulfonyl]-6-(4-cyano-3-methoxy-phenyl)-2-(2,4,6-trimethylphenoxy)pyridine-3-carboxamide], “+++ (“+++” means <3 uM)”.

With `CC1CN(c2ncccc2C(=O)NS(=O)(=O)c2cccc(Oc3cccc4ccccc34)n2)C(C)(C)C1` (stereo not drawn) [Compound 1751, N—[[6-(1-naphthyloxy)-2-pyridyl]sulfonyl]-2-(2,2,4-trimethylpyrrolidin-1-yl)pyridine-3-carboxamide], the EC30 entry is recorded as “+++ (“+++” means <3 uM)”. For the compound `COc1nc(C)ccc1S(=O)(=O)NC(=O)c1ccc(C(C)(C)C)nc1Oc1c(C)cc(C)cc1C` [Compound 1153, 6-tert-butyl-N-[(2-methoxy-6-methyl-3-pyridyl)sulfonyl]-2-(2,4,6-trimethylphenoxy)pyridine-3-carboxamide], the EC30 entry is “+++ (“+++” means <3 uM)”. To `Cc1cccc(C)c1Cn1nc(-c2cnc(N(C)C)nc2)cc1C(=O)NS(=O)(=O)c1ccccc1` [Compound 1678, N-(benzenesulfonyl)-5-[2-(dimethylamino)pyrimidin-5-yl]-2-[(2,6-dimethylphenyl)methyl]pyrazole-3-carboxamide] belongs “+ (“+” means greater than 10 uM)”; to `C[C@@H]1CN(c2nc(Cl)ccc2C(=O)NS(=O)(=O)c2cccc(N)n2)C(C)(C)C1` [Compound 852, N-[(6-amino-2-pyridyl)sulfonyl]-6-chloro-2-[(4S)-2,2,4-trimethylpyrrolidin-1-yl]pyridine-3-carboxamide], “++ (“++” means between 3 uM and 10 uM)”. To `COc1ncccc1S(=O)(=O)NC(=O)c1cc2c(nc1Oc1ccc(C)cc1C)C(C)(C)CCC2` [Compound 1347, 2-(2,4-dimethylphenoxy)-N-[(2-methoxy-3-pyridyl)sulfonyl]-8,8-dimethyl-6,7-dihydro-5H-quinoline-3-carboxamide] belongs “+++ (“+++” means <3 uM)”; to `CC(C)COc1cc(F)cc(-c2ccc(C(=O)NS(=O)(=O)N3CCCC(C)(N)C3)c(N3CC(C)CC3(C)C)n2)c1` (stereo not drawn) [Compound 1445, N-[(3-amino-3-methyl-1-piperidyl)sulfonyl]-6-(3-fluoro-5-isobutoxy-phenyl)-2-(2,2,4-trimethylpyrrolidin-1-yl)pyridine-3-carboxamide], “+++ (“+++” means <3 uM)”; to `CC(C)COc1cc(F)cc(-c2ccc(C(=O)NS(=O)(=O)c3cccc(N)n3)c(N3CC(C)CC3(C)C)c2F)c1` (stereo not drawn) [Compound 1497, N-[(6-amino-2-pyridyl)sulfonyl]-3-fluoro-4-(3-fluoro-5-isobutoxy-phenyl)-2-(2,2,4-trimethylpyrrolidin-1-yl)benzamide], “+++ (“+++” means <3 uM)”. The result for `C[C@@H]1CN(c2nc(-c3cccc4ccccc34)ccc2C(=O)NS(=O)(=O)c2cccnc2N)C(C)(C)C1` [Compound 1857, N-[(2-amino-3-pyridyl)sulfonyl]-6-(1-naphthyl)-2-[(4S)-2,2,4-trimethylpyrrolidin-1-yl]pyridine-3-carboxamide] reads “+++ (“+++” means <3 uM)”; that for `C[C@@H]1CN(c2nc(-c3ccc(C(F)(F)F)cc3)ccc2C(=O)NS(=O)(=O)c2ccc[nH]c2=O)C(C)(C)C1` [Compound 1799, N-[(2-oxo-1H-pyridin-3-yl)sulfonyl]-6-[4-(trifluoromethyl)phenyl]-2-[(4S)-2,2,4-trimethylpyrrolidin-1-yl]pyridine-3-carboxamide], “+++ (“+++” means <3 uM)”.

Consider `COc1ncc(-c2ccc(C(=O)NS(=O)(=O)c3cc[nH]n3)c(Oc3c(C)cc(C)cc3C)n2)cc1C` [Compound 1044, 6-(6-methoxy-5-methyl-3-pyridyl)-N-(1H-pyrazol-3-ylsulfonyl)-2-(2,4,6-trimethylphenoxy)pyridine-3-carboxamide], for which the EC30 entry was “+++ (“+++” means <3 uM)”. The result for `CC(CO)COc1cc(F)cc(-c2ccc(C(=O)NS(=O)(=O)c3cccc(N)n3)c(N3C[C@@H](C)CC3(C)C)n2)c1` (stereo partly drawn) [Compound 1567, N-[(6-amino-2-pyridyl)sulfonyl]-6-[3-fluoro-5-(3-hydroxy-2-methyl-propoxy)phenyl]-2-[(4S)-2,2,4-trimethylpyrrolidin-1-yl]pyridine-3-carboxamide] reads “+++ (“+++” means <3 uM)”. To `CCOc1cccc2c1CN(Cc1c(C)cc(C)cc1C)[C@@]2(C)C(=O)NS(=O)(=O)c1ccc[nH]c1=O` [Compound 1476, (1R)-4-ethoxy-1-methyl-N-[(2-oxo-1H-pyridin-3-yl)sulfonyl]-2-[(2,4,6-trimethylphenyl)methyl]isoindoline-1-carboxamide] belongs “+++ (“+++” means <3 uM)”; to `COc1ccc(/C=C/c2cc(C(=O)NS(=O)(=O)c3cccc(N)n3)c(N3C[C@@H](C)CC3(C)C)nc2C(C)(C)C)cc1` [Compound 1535, N-[(6-amino-2-pyridyl)sulfonyl]-6-tert-butyl-5-[(E)-2-(4-methoxyphenyl)vinyl]-2-[(4S)-2,2,4-trimethylpyrrolidin-1-yl]pyridine-3-carboxamide], “+++ (“+++” means <3 uM)”. The result for `CC(C)COc1cc(F)cc(-c2ccc(C(=O)NS(=O)(=O)c3cccc(N)n3)c(N3CCC[C@H]3C(F)(F)F)n2)c1` [Compound 1304, N-[(6-amino-2-pyridyl)sulfonyl]-6-(3-fluoro-5-isobutoxy-phenyl)-2-[(2S)-2-(trifluoromethyl)pyrrolidin-1-yl]pyridine-3-carboxamide] reads “+++ (“+++” means <3 uM)”; that for `COc1ccc(-c2ccc(C(=O)NS(=O)(=O)c3cccnc3N)c(N3C[C@@H](C)CC3(C)C)n2)cc1F` [Compound 1851, N-[(2-amino-3-pyridyl)sulfonyl]-6-(3-fluoro-4-methoxy-phenyl)-2-[(4S)-2,2,4-trimethylpyrrolidin-1-yl]pyridine-3-carboxamide], “+++ (“+++” means <3 uM)”. `C[C@@H]1CN(c2nc(-c3ccccc3CO)ccc2C(=O)NS(=O)(=O)c2cccnc2N)C(C)(C)C1` [Compound 1706, N-[(2-amino-3-pyridyl)sulfonyl]-6-[2-(hydroxymethyl)phenyl]-2-[(4S)-2,2,4-trimethylpyrrolidin-1-yl]pyridine-3-carboxamide]: the EC30 entry was “++ (“++” means between 3 uM and 10 uM)”.
